Tests used:
panel of 402 kinases = assay: Kinome binding assays, selectivity panel; details: test concentration 1 μM
[1] = tested on: collagen-antibody-induced arthritis (CAIA); assay: Collagen-antibody-induced arthritis (CAIA) model, paw size and clinical score; assay type: in vivo, female DBA/1 mice; details: 55 mg/kg p.o. b.i.d., day 13
Procedure: Female DBA/1 mice were injected i.v. (intravenous) with purified anti-collagen type II antibodies, then given 25 μg of LPS (lipopolysaccharide), i.p. (intraperitoneal), three days later to induce arthritis by day 5. Mice that met the arthritis criteria score of 1 per paw were entered into the study. Compound A was administered orally, b.i.d. (twice daily), for all doses tested; Dex (Dexamethasone) was administered at 1.5 mg/kg three times a week, i.p.; and vehicle (PEG400+1% DMSO) was administered orally.
Anti-collagen type II antibody was delivered to mice i.v. and oral administration of Compound A was initiated upon meeting minimum score requirements and entry into dosage groups. Compound A was administered at 10, 30 or 55 mg/kg p.o. twice daily for two weeks total. Vehicle groups were treated with PEG400 in 1% DMSO; dexamethasone (Dex) was used as a glucocorticoid standard of care reference. Dex was given i.p. in saline alone, three times a week (every 48 hours) at 1.5 mg/kg of total body mass.
Acclimated mice were randomized, pre-bled and measured for baseline inflammation before any studies were initiated. On day 0, DBA/1 female mice were injected i.v. with 100 μl of a saline solution containing 1.5 mg of a 10 mg/ml cocktail of arthritogenic monoclonal antibodies directed against different epitopes of collagen type II (Chondrex, Redmond, Wash.) suspended in saline. […]

[2] = tested on: collagen-antibody-induced arthritis (CAIA); assay: CAIA model, joint histopathology scores; assay type: in vivo, female DBA/1 mice; details: compared to vehicle controls
Procedure: Tissues were also stained with Safranin-O to evaluate matrix degeneration. Five representative mice from each group were sent for histological analysis and graded according to a scoring method described herein. The data in the figures represent mean±SEM, all statistics were performed using Prism® software and 2-way ANOVA analysis. H&E and Safranin-O stained paraffin wax embedded carpus and tarsus sections were scored by a board certified, independent pathologist for the criteria described in the materials and methods. Tabulated data represent mean±SD (standard deviation) values for the tarsus only. Statistics were performed using 2-way ANOVA analysis, *p<0.05; **p<0.01; ***p<0.001, N=5 mice per group tested. At the end of each experiment, front and hind paws (including carpus and tarsus) were removed from the body of the animal for histological analysis. Skin from the ends of the digits was removed and the metatarsal region skin perforated using surgical scissors to allow full decalcification. […] After 7-10 days of decalcification, samples were washed for 2 hours in distilled water and stored in 70% ethanol at 4° C. until ready to be processed. […] A total of five mice from each group were analyzed via histopathology, 10× representative images are shown for each group tested.

[3] = tested on: CB11-specific, IFNγ secreting T cells; assay: CIA model, ex vivo IFNγ T-cell Elispot of splenocytes; assay type: in vivo, female DBA/1 mice; details: four weeks
From the text: FIG. 4D: Depicts IFNγ Elispot® results from stimulated splenocytes from treated mice challenged with collagen type II fragment (CB11), OVA or media alone. The Elispot images shown in the figure are representative of each treatment group and the bar graph represents data using four mice from each treatment group. Spots were counted using a C.T.L. Immunospot Elispot scanner and spot counting software.
For CIA experiments, Millipore nitrocellulose IP filter plates (Millipore, Billerica, Mass.) were coated with either anti-mouse IFNγ (AN18, MabTech, Mariemont, Ohio) or anti-mouse IL-4 (11B11, eBioscience, San Diego, Calif.) at 7 μg/ml or 2 μg/ml, respectively, in sterile PBS at 60 μl per well and incubated for 3 hours at RT or overnight at 4° C. Coated wells were washed with PBS plus 0.1% Tween-20 and patted semi-dry before blocking using complete media for at least 1 hour before use. Purified mouse collagen type II (Chrondrex, Redmond, Wash.), type I (Chrondrex, Redmond, Wash.) or third party control chicken ovalbumin (OVA) (Sigma, St. Louis, Mo.) were used to challenge 1 million processed splenocytes per well at 10 μg/ml of total antigen concentration. Media alone were used as background controls, OVA as third party controls and PMA plus Ionomycin as positive controls for IFNγ and IL-4 release by Th1 and Th2 cells, respectively.

[4] = tested on: pro-inflammatory cytokines in paw extracts; assay: CAIA model, paw cytokines (Luminex bead assay); assay type: in vivo, female DBA/1 mice
Procedure: DBA/1 female mice were injected i.v. with purified anti-collagen type II antibodies, then given 25 μg of LPS i.p. three days later to induce arthritis by day 5. Mice that met the arthritis criteria score of 1 per paw were entered into the study.
The cytokines were measured using known procedures [32].
Briefly, the front (including carpus) and back (including tarsus) right paws were collected and frozen in dry-ice cooled isopentane and stored at −80° C. until use. The paws were cut to 2 mm×2 mm segments and kept on dry-ice in round bottom polypropylene tubes. Seven hundred microliters tissue extraction buffer containing protease inhibitor cocktail (Calbiochem, San Diego, Calif.) and Halt phosphatase inhibitor cocktail (Thermo Scientific, Rockford, Ill.) or Roche phosphatase inhibitor cocktail (Roche, Indianapolis, Ind.) in tissue extraction reagent I (Invitrogen, Carlesbad, Calif.) were added to each sample. Samples were homogenized frozen using a PT 10-35 Polytron homogenizer. After homogenization, samples were centrifuged at 4° C. for 2000×g for 10 minutes and supernatants re-centrifuged at 4° C. at maximum speed, 14,000×g, for 15 minutes. Supernatants were carefully removed to avoid picking up the top layer of lipids/adipose debris. Protein concentration was measured using a BCA protein assay (Pierce, Rockford, Ill.) and adjusted to 3 mg/ml. A minimum of 25 μl of this extraction was used in the above described protocol using the mouse cytokine 10-plex bead kit (Invitrogen, Carlsbad, Calif.) or phosphorylated STAT1, 3, 5a/b, 3-plex kit (Invitrogen, Carlsbad, Calif.).

pSTAT3 = assay: Activity against pSTAT3 (another experiment)
[5] = tested on: collagen-induced arthritis (CIA); assay: Collagen-induced arthritis (CIA) model, paw size and clinical score; assay type: in vivo, female DBA/1 mice
Procedure: Female DBA/1 mice were injected with purified collagen type II in CFA i.d. (intradermal), then boosted with collagen type II in IFA, s.c., (subcutaneous) on day 21 followed by a day 28 LPS injection i.p. to induce arthritis (CIA). Mice that scored a ‘1’ or better for each paw were considered arthritic and entered into the study. Treatments started after 7-10 days of arthritis induction. Compound A was provided orally, b.i.d., for all doses tested; Dex was administered i.p. at 1.5 mg/kg, three times a week; and vehicle (PEG400+1% DMSO) was provided orally, b.i.d.
Compound A was then tested in a more physiologic and progressive disease model of RA (i.e., collagen-induced arthritis (CIA) model). […] Early model optimization studies consistently generated robust collagen-induced-arthritis phenotypes that were absent from control treated, non-diseased, animals. CIA arthritic animals were separated into groups and treated with Compound A at 30, 55 and 100 mg/kg doses b.i.d, p.o.; vehicle or the standard-of-care reference drug, Dex at 1.5 mg/kg, which were administered as described above. […] The faster onset of swelling reduction noted for the 100 mg/kg treatment group may be explained by differences in the mechanism of action of Compound A.
Acclimated mice were randomized and pre-bled and measured for baseline inflammation before any studies were initiated. On day 0, DBA/1 female mice were given a primary immunization with equal volumes of bovine type II collagen (CII), 2 mg/ml stock in 0.05 M acetic acid, (Chrondrex, Redmond, Wash.) suspended in CFA, 5 mg/ml (Chondrex, Redmond, Wash.) emulsion yielding an injection of 100 μg of CII at 100 μl into the base of the tail intradermally (i.d.). At day 21 post primary immunization, mice were re-challenged with CII emulsified in Incomplete Freund's Adjuvant (IFA) (Thermo Scientific, Rockford, Ill.) s.c. on the flank of the mouse. On day 28 each mouse received an i.p. injection of E. coli 0111:B4 LPS (0.5 mg/ml stock) (Chondrex, Redmond, Wash.) at 10 μg in 100 μl of saline (25-50 μg of LPS was reduced to 10 μg per mouse to reduce mortality associated with endotoxic shock). Around day 35 the mice begin to show signs of paw inflammation and disease. Before starting treatment mice were randomized, grouped, scored, ear tagged and pre-bled to determine baseline disease. […] Arthritis clinical scores were the same as that used to score the CAIA model (see CAIA methods). Vehicle consisted of PEG400 plus 1% DMSO given orally, twice daily (b.i.d). […] All samples were kept at −80° C. until ready to assay. At about day 60 mice were harvested for spleen, plasma and arthritic paws for STAT and cytokine quantitation and histological analysis.

[6] = CIA, 30, 55 and 100 mg/kg b.i.d. p.o.

- share of the panel inhibited by >90% (panel of 402 kinases; 402 kinases): 9%
- share of the panel inhibited by >99% (panel of 402 kinases; 402 kinases): 1%
- selectivity score S(90)402 (panel of 402 kinases; score of Karaman et al): 0.09
- selectivity score S(99)402 (panel of 402 kinases; score of Karaman et al): 0.01
Structure (SMILES): CN1CCN(c2cccc(Nc3nc4c(-c5ccc(S(C)(=O)=O)cc5)cccn4n3)c2)CC1 [Compound A, [8-(4-Methanesulfonyl-phenyl)-[1,2,4]triazolo[1,5-a]pyridin-2-yl]-[3-(4-methyl-piperazin-1-yl)-phenyl]-amine]
- drop in mean paw thickness or size compared to vehicle [1]: 1.3 fold
- reduction in total clinical score compared to vehicle [1]: 2.4 fold
- histopathology parameters (matrix erosions, subchondral osteolysis, osteoproliferation, synovial proliferation, pannus formation, degree of inflammation) [2]: significantly decrease several parameters
- frequency of CB11-specific, IFNγ secreting T cells ([3]; 55 mg/kg b.i.d. p.o.): significant reduction in the frequency of CB11-specific, IFNγ secreting T cells
- frequency of CB11-specific, IFNγ secreting T cells ([3]; 100 mg/kg b.i.d. p.o.): significant reduction in the frequency of CB11-specific, IFNγ secreting T cells
- paw IL-6 concentration ([4]; CAIA experiment, 4 hours post dosing, p<0.05): reduction in paw IL-6
- level of pro-inflammatory cytokines in paw extracts ([4]; CAIA, 55 mg/kg): significantly reduced the level of several of the cytokines
- cytokine suppression over the study (IL-1β, IL-6, TNFα, IL-12) ([4]; CAIA, 55 mg/kg, p<0.01 vs vehicle): lowered and sustained cytokine suppression for the remainder of the study
- level of pro-inflammatory cytokines in paw extracts ([4]; CAIA, 100 mg/kg): significantly reduced the level of several of the cytokines
- dose dependence of cytokine reduction in paw extracts ([4]; CAIA, 30, 55 and 100 mg/kg, especially GM-CSF, IL-12, IL-2, IL-4): Dose-dependent reductions were observed for all cytokines tested
- paw cytokine expression compared with Dex group ([4]; CAIA, several of the cytokines tested, p<0.05 vs vehicle): significantly decreased cytokine expression below the levels observed in the Dex treatment group
- activity against pSTAT3 (pSTAT3): exhibited some activity against pSTAT3
- suppression of paw swelling versus Dex ([5]; CIA, 100 mg/kg): near identical suppression of paw swelling
- onset of swelling reduction versus Dex ([5]; CIA, 100 mg/kg, day 43): more rapid drop in swelling as compared to the Dex treatment group
- clinical score [5, 6]: reduction in clinical score in a dose-dependent manner
- mean paw size [5, 6]: clear reduction in the mean paw size

From patent publication US9034876B2, “Treatment of chronic inflammation with a 1,2,4-triazolo [1,5a] pyridine derivative” (Cephalon, Inc., priority 2010, dated 2015)
